Source: patent US20050192273A1, “Therapy for psychoses combining an atypical antipsychotic and an mglu2/3 receptor agonist” (priority 2002, published 2005)
“Also recorded” adds a separate entry of the source.

Columns and labels:
human mGlu4 = molecular target: T1, human mGlu4 (Homo sapiens, UniProt Q14833); conditions: decrease forskolin-stimulated cAMP, cited from earlier work
T1 construct: expressed in transfected cells; host or cells: RGT cells (cells expressing the rat glutamate transporter)
T1 sequence (Q14833 33-912): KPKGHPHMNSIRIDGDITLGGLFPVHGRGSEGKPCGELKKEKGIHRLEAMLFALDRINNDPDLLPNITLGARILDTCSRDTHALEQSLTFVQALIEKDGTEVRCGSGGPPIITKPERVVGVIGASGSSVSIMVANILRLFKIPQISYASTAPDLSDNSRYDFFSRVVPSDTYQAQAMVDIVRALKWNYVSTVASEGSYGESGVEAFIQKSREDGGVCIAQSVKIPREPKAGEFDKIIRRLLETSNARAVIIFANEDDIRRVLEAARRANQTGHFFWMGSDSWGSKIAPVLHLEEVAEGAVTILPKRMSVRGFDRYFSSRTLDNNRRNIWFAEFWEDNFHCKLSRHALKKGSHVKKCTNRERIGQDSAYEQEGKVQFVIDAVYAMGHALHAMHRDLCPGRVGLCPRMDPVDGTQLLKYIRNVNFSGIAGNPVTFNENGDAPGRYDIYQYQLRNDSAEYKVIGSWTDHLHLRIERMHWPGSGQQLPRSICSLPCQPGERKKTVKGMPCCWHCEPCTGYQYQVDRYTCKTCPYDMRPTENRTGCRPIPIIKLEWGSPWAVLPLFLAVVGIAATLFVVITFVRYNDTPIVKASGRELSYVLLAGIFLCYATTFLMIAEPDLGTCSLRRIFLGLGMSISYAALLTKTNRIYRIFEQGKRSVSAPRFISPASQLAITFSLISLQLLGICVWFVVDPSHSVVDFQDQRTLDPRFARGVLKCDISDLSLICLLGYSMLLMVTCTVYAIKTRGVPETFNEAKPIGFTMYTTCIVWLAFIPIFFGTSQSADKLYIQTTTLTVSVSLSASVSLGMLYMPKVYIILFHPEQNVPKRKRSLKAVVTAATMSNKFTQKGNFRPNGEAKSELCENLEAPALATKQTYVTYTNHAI

human mGlu8 = molecular target: T2, human mGlu8 (Homo sapiens, UniProt O00222); conditions: decrease forskolin-stimulated cAMP, mean ± S.E.M., read-out: EC50 (nM) (Agonist Activity); cited from earlier work
T2 construct: expressed in transfected cells; host or cells: RGT cells (cells expressing the rat glutamate transporter)

human mGlu3 = molecular target: T3, human mGlu3 (Homo sapiens, UniProt Q14832); conditions: decrease forskolin-stimulated cAMP, mean ± S.E.M., read-out: EC50 (nM) (Agonist Activity); cited from earlier work
T3 construct: expressed in transfected cells; host or cells: RGT cells (cells expressing the rat glutamate transporter)
T3 sequence (Q14832 23-879): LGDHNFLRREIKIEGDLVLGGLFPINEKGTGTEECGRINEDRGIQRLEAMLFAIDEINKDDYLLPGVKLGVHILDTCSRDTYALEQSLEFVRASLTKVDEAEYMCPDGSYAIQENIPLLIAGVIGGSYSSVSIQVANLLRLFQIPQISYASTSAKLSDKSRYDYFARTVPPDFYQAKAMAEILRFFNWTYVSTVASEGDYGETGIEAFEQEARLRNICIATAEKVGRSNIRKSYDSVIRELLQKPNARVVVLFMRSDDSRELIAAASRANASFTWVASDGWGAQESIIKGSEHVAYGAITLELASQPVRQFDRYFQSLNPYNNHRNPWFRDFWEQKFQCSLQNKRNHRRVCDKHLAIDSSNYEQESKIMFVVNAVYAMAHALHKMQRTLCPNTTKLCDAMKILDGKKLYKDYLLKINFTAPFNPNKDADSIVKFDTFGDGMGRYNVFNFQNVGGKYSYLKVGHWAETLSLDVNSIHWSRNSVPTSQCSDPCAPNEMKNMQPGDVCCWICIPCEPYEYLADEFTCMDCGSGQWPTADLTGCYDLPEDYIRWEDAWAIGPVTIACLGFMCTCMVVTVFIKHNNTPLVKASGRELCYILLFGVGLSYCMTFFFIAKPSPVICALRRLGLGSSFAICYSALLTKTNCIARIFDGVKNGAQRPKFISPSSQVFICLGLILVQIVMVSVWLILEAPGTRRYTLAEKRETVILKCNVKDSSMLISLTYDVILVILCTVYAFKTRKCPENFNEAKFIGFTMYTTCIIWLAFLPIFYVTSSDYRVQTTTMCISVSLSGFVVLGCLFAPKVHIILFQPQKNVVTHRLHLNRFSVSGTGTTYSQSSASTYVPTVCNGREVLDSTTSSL

human mGlu5 = molecular target: T4, human mGlu5 (Homo sapiens, UniProt P41594); conditions: increase PI hydrolysis, cited from earlier work
T4 construct: expressed in transfected cells; host or cells: RGT cells (cells expressing the rat glutamate transporter)
T4 sequence (P41594 21-1180 isoform P41594-2 limits assumed): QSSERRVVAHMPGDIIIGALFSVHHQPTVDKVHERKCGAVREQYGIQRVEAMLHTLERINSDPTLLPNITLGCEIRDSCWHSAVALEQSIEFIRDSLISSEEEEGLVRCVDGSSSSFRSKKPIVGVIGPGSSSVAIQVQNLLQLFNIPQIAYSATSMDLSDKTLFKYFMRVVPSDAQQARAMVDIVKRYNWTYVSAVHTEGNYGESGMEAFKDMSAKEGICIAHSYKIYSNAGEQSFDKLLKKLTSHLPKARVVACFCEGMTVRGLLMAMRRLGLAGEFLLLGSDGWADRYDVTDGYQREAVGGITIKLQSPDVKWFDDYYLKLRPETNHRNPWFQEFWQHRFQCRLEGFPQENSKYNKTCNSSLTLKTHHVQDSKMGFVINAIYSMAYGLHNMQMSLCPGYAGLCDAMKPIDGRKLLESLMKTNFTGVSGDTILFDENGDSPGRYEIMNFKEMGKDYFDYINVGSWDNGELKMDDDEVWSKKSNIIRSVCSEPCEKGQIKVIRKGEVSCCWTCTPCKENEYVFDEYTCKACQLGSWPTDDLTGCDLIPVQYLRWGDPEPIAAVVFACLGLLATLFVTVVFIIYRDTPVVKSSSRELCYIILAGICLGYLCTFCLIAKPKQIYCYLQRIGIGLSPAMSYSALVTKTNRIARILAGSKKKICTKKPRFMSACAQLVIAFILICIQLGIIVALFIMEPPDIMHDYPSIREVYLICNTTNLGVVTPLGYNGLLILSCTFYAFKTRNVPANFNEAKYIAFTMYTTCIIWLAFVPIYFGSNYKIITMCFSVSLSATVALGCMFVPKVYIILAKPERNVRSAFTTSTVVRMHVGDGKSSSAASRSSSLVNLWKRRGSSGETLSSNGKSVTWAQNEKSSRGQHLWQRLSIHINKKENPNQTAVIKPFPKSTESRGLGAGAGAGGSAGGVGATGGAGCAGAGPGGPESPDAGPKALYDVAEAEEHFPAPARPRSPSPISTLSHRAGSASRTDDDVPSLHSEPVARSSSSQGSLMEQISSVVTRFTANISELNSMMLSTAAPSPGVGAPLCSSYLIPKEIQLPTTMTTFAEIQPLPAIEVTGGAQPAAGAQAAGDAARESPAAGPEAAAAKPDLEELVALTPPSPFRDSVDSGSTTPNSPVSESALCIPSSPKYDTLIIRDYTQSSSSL

human mGlu7 = molecular target: T5, human mGlu7 (Homo sapiens, UniProt Q14831); conditions: decrease forskolin-stimulated cAMP, cited from earlier work
T5 construct: expressed in transfected cells; host or cells: RGT cells (cells expressing the rat glutamate transporter)
T5 sequence (Q14831 35-915): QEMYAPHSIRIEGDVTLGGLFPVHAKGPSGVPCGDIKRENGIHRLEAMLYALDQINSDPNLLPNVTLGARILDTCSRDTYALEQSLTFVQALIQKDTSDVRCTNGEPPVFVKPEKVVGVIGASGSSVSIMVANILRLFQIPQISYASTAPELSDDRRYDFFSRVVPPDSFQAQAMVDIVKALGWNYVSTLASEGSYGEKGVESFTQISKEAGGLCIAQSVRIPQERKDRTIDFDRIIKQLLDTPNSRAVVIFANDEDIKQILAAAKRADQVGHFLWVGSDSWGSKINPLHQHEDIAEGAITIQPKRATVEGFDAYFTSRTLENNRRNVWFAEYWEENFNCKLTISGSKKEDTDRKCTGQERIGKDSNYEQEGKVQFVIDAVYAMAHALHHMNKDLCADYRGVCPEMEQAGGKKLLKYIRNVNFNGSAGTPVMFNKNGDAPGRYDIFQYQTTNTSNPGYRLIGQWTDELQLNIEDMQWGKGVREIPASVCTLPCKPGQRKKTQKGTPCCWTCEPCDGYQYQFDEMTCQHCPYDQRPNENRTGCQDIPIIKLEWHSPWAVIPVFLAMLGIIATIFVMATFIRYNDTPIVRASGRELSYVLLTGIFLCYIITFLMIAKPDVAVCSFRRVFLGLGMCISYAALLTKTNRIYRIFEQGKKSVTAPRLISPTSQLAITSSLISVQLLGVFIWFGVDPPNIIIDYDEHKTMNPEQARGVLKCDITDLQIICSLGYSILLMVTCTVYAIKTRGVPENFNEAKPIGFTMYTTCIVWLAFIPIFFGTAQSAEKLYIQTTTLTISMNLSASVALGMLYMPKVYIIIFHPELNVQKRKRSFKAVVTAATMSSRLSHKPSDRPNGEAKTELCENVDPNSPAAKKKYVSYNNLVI

human mGlu2 = molecular target: T6, human mGlu2 (Homo sapiens, UniProt Q14416); conditions: decrease forskolin-stimulated cAMP, mean ± S.E.M., read-out: EC50 (nM) (Agonist Activity); cited from earlier work
T6 construct: expressed in transfected cells; host or cells: RGT cells (cells expressing the rat glutamate transporter)

[1] = test system: PCP-induced motor activation (ambulations); assay: PCP-induced motor activation (ambulations) in rats; format: in vivo, rat; conditions: PCP 5 mg/kg s.c., 60 min
Procedure: In the present experiments, studies were performed in accordance with Eli Lilly and Company animal care and use policies. Male Sprague-Dawley rats (250-300 g) were group-housed (maximum of seven rats per cage) under standard laboratory conditions with ad libitum access to food and water (12 h light/dark cycle), for at least 1 day before use.
Activity Assessment compounds were tested against PCP-induced motor activation (ambulations) in rats. Behavioral parameters were monitored in transparent, shoe-box cages that measured 45×25×20 cm, with a 1 cm depth of wood chips on the cage floor and a metal grill on top of the cage. Rectangular photocell monitors (Hamilton Kinder, Poway, Calif.) with a bank of […] (8×4 formation) surrounded each test cage. A lower rack of photocell beams was positioned 5 cm above the cage floor to enable detection of the location of the animals body, while an upper bank positioned 10 cm above the first tabulated rearing activity. Ambulations (locomotor activity) and rearing were recorded by the computer and stored for each test session as discussed in Male Sprague-Dawley rats were generally food-fasted 12-18 hours prior to the experiment. In some experiments, rats were allowed food and water ad libitum prior to the experiment. On the test day animals were placed in the test cage for a 30 min habituation period before to testing to allow for acclimation to the test cage environment. Following this habituation period, animals were administered challenges of phencyclidine (PCP) (5 mg/kg s.c.) or 0.9% NaCl vehicle (1 ml/kg) and behavioral assessment began immediately following their administration. Animals were monitored over a 60 min period in all instances. Test drugs or vehicle were administered at various pretreatment times prior to the PCP challenge.
Statistical analysis. Statistical Analysis were carried out using the GraphPad PRISM statistical/graphing package (GraphPad, SanDiego, Calif.). Data were analyzed using a one-way analysis of variance (ANOVA) and post-hoc comparisons were performed using Dunnett's multiple comparisons test.
The rats were tested 30 minutes post-injection of the test compound or vehicle. Behaviors were monitored over a 60 minute time period following S.C. injection of PCP or vehicle. Data (mean±S.E.) are presented as the total number of behaviors expressed during the timer period.

human mGlu1 = molecular target: T7, human mGlu1 (Homo sapiens, UniProt Q13255); conditions: increase PI hydrolysis, cited from earlier work
T7 construct: expressed in transfected cells; host or cells: RGT cells (cells expressing the rat glutamate transporter)
T7 sequence (Q13255 19-1194): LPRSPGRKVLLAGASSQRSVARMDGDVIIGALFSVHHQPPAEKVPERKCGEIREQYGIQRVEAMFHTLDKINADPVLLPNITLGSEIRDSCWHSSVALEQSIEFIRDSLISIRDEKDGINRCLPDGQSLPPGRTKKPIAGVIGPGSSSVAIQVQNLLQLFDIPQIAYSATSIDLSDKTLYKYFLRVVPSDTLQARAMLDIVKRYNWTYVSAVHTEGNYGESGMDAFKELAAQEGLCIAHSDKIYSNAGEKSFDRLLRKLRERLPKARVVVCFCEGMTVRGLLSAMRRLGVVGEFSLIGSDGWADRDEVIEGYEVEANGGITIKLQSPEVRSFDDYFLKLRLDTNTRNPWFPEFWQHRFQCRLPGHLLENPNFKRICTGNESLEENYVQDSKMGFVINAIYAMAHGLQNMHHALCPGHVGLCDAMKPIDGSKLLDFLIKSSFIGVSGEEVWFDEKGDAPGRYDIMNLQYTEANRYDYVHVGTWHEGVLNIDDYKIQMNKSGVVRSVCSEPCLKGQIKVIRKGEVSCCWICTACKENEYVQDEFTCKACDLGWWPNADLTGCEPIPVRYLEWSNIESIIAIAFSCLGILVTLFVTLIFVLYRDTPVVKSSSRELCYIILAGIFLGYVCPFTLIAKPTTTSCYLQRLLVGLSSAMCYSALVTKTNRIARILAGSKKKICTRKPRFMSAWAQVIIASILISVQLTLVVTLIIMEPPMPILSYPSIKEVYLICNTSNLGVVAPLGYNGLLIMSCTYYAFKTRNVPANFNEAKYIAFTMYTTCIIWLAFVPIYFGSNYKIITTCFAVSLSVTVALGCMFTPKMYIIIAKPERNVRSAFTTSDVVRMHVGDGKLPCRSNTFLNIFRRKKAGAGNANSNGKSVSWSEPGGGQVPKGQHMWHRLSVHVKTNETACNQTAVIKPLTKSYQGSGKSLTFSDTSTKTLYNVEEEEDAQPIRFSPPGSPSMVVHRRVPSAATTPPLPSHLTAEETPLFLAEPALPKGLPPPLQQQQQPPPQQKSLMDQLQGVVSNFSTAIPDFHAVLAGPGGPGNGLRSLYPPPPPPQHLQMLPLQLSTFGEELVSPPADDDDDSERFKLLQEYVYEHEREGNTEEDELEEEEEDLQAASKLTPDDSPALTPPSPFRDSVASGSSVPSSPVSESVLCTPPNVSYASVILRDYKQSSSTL

[2] = read-out: EC50 (nM) (Agonist Activity)
[3] = read-out: IC50 (nM) (Antagonist Activity)

**Q.** Which EC50 (human mGlu4; [2]) does the source give for NC1(C(=O)O)CCC2C(C(=O)O)C21 (single isomer, unassigned; (+)) [LY354740, (+)-2-aminobicyclo[3.1.0]hexane-2,6-dicarboxylic acid] here?
**A.** > 100000 nM

**Q.** What about the IC50 (human mGlu4; [3]) of the same molecule?
**A.** > 100000 nM

**Q.** What about the EC50 (human mGlu8) of the same molecule?
**A.** 36000 nM

**Q.** And the EC50 (human mGlu3)?
**A.** 24.3 ± 0.5 nM

**Q.** And the EC50 (human mGlu5; [2])?
**A.** > 100000 nM

**Q.** What about the IC50 (human mGlu5; [3]) of the same molecule?
**A.** > 100000 nM

**Q.** And the EC50 (human mGlu7; [2])?
**A.** > 100000 nM

**Q.** And the IC50 (human mGlu7; [3])?
**A.** > 100000 nM

**Q.** And the EC50 (human mGlu2)?
**A.** 5.1 ± 0.3 nM

**Q.** And the “effect on PCP-induced ambulations” value ([1]; single agent 10 mg/kg)?
**A.** statistically insignificant effect

**Q.** And the EC50 (human mGlu1; [2])?
**A.** > 100000 nM

**Q.** What about the IC50 (human mGlu1; [3]) of the same molecule?
**A.** > 100000 nM

**Q.** For N[C@@]1(C(=O)O)CO[C@H]2[C@H](C(=O)O)[C@H]21 [LY379268, 1R,4R,5S,6R-4-amino-(2-oxabicyclo[3.1.0]hexane)-4,6-dicarboxylic acid], which “effect on PCP-induced ambulations” value ([1]; single agent 1 mg/kg) is on record?
**A.** smaller and statistically insignificant effect

**Q.** With N[C@]1(C(=O)O)C[C@H](F)[C@@H]2[C@@H](C(=O)O)[C@@H]21 [LY459477, (1S,2R,4S,5S,6S)-2-amino-4-fluorobicyclo[3.1.0]hexane-2,6-dicarboxylic acid] as the molecule, how does the “effect on PCP-induced ambulations” value ([1]; single agent 1 mg/kg) read?
**A.** relatively small impact; also recorded: statistically insignificant effect

**Q.** With Cc1cc2c(s1)Nc1ccccc1N=C2N1CCN(C)CC1 [Olanzapine, 2-methyl-4-(4-methyl-1-piperazinyl)-10H-thieno[2,3-b][1,5]benzodiazepine, reference compound] as the molecule, how does the “effect on PCP-induced ambulations” value ([1]; single agent 1 mg/kg) read?
**A.** significant impact; also recorded: minimal impact
